Assay results taken from the supplement of paper PMC10307832.

Assays:
Test in all cases: relative viability (nuclei count vs DMSO), 5 days (fraction); higher = more cells survive
Shikonin + Crizotinib = compound: CC(C)=CC[C@@H](O)C1=CC(=O)c2c(O)ccc(O)c2C1=O [Shikonin] + C[C@@H](Oc1cc(-c2cnn(C3CCNCC3)c2)cnc1N)c1c(Cl)ccc(F)c1Cl [Crizotinib] (partner 1 µM)
In short: (§1)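 Relative viability is defined as nuclei in treated wells over nuclei in vehicle wells. Duplicate plates were run and medians reported. Lung cancer cell lines in 1536-well plates were dosed by pin tool one day after seeding, with one drug or with a fixed anchor-drug dose plus five library-drug doses (not always all listed) in √10 steps, and nuclei were counted after 5 days.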

Shikonin + Linsitinib = compound: CC(C)=CC[C@@H](O)C1=CC(=O)c2c(O)ccc(O)c2C1=O [Shikonin] + C[C@]1(O)C[C@@H](c2nc(-c3ccc4ccc(-c5ccccc5)nc4c3)c3c(N)nccn32)C1 [Linsitinib] (partner 1 µM)
In short: as §1

[1] = compound: CC(C)N(CCCNC(=O)Nc1ccc(C(C)(C)C)cc1)C[C@H]1O[C@@H](n2ccc3c(N)ncnc32)[C@H](O)[C@@H]1O + CC(=O)c1c(C)c2cnc(Nc3ccc(N4CCNCC4)cn3)nc2n(C2CCCC2)c1=O [Palbociclib] (partner 0.5 µM)
In short: as §1

[2] = compound: CC(C)N(CCCNC(=O)Nc1ccc(C(C)(C)C)cc1)C[C@H]1O[C@@H](n2ccc3c(N)ncnc32)[C@H](O)[C@@H]1O + Nc1ncn([C@H]2C[C@H](O)[C@@H](CO)O2)c(=O)n1 [Decitabine] (partner 2 µM)
In short: as §1

Row | Cell Line | relative viability (Shikonin + Crizotinib; first compound 0.01 µM) | relative viability (Shikonin + Crizotinib; first compound 0.1 µM) | relative viability (Shikonin + Crizotinib; first compound 0.3162 µM) | relative viability (Shikonin + Crizotinib; first compound 1 µM) | relative viability (Shikonin + Linsitinib; first compound 0.01 µM) | relative viability (Shikonin + Linsitinib; first compound 0.1 µM) | relative viability (Shikonin + Linsitinib; first compound 0.3162 µM) | relative viability (Shikonin + Linsitinib; first compound 1 µM) | relative viability ([1]; first compound 0.08 µM) | relative viability ([1]; first compound 0.253 µM) | relative viability ([1]; first compound 0.8 µM) | relative viability ([1]; first compound 2.53 µM) | relative viability ([1]; first compound 8 µM) | relative viability ([2]; first compound 0.08 µM) | relative viability ([2]; first compound 0.253 µM) | relative viability ([2]; first compound 0.8 µM) | relative viability ([2]; first compound 2.53 µM) | relative viability ([2]; first compound 8 µM)
1 | HCC-44 | 0.933 | 0.86 | 0.891 | 0.825 | 0.798 | 0.636 | 0.685 | 0.694 | 0.968 | 1.05 | 0.845 | 0.931 | 0.91 | 0.979 | 1.01 | 0.714 | 0.966 | 0.915
2 | HCC-78 | 0.325 | 0.388 | 0.357 | 0.377 | 0.499 | 0.496 | 0.658 | 0.56 | 0.391 | 0.484 | 0.502 | 0.458 | 0.476 | 0.783 | 0.667 | 0.667 | 0.707 | 0.777
3 | HCC-366 | 0.745 | 0.373 | 0.517 | 0.561 | 0.592 | 0.852 | 0.985 | 0.673 | 0.34 | 0.372 | 0.41 | 0.375 | 0.396 | 0.359 | 0.335 | 0.317 | 0.294 | 0.352
4 | HCC-827 | 0.939 | 0.974 | 0.933 | 0.935 | 0.909 | 1.09 | 0.999 | 0.906 | 0.22 | 0.468 | 0.32 | 0.477 | 0.5 | 0.322 | 0.325 | 0.315 | 0.304 | 0.38
5 | HOP-62 | 0.61 | 0.95 | 0.32 | 1.02 | 0.994 | 0.806 | 0.987 | 0.807 | 0.46 | 0.37 | 0.356 | 0.361 | 0.371 | 0.225 | 0.207 | 0.21 | 0.195 | 0.198
6 | IA-LM | 1.06 | – | 1.11 | 0.667 | 0.738 | 0.473 | 0.434 | 0.573 | – | – | – | – | – | – | – | – | – | –
7 | LC-2-ad | 0.404 | 0.45 | 0.423 | 0.364 | 0.769 | 0.884 | 0.833 | 0.812 | 0.496 | 0.463 | 0.495 | 0.51 | 0.484 | 0.776 | 0.857 | 0.688 | 0.728 | 0.768
8 | NCI-H522 | – | – | – | – | – | – | – | – | 0.85 | 1.05 | 1.09 | 1.09 | 1.4 | 0.64 | 0.737 | 0.71 | 0.729 | 0.696
9 | NCI-H596 | 1.1 | 0.884 | 0.96 | 0.985 | 1.04 | 0.887 | 1.16 | 1.06 | – | – | – | – | – | 1.03 | 0.975 | 1.03 | 1.19 | 0.988
10 | NCI-H1299 | 0.958 | 1.09 | 0.965 | 0.922 | 1 | 1.03 | 0.82 | 0.659 | – | – | – | – | – | – | – | – | – | –
11 | NCI-H1395 | – | – | – | – | 1.08 | 1.4 | 0.878 | 1.05 | 0.587 | 0.59 | 0.651 | 0.626 | 0.625 | 0.711 | 0.704 | 0.76 | 0.748 | 0.662
12 | NCI-H1563 | 0.891 | 0.845 | 0.751 | 0.622 | 1.27 | 1.29 | 1.23 | 0.892 | – | – | – | – | – | – | – | – | – | –
13 | NCI-H1648 | – | – | – | – | – | – | – | – | 0.268 | 0.315 | 0.335 | 0.287 | 0.323 | 0.494 | 0.464 | 0.446 | 0.398 | 0.548
14 | NCI-H1650 | 1.06 | 0.993 | 1.06 | 0.691 | – | – | – | – | 0.38 | 0.431 | 0.131 | 0.335 | 0.396 | 0.368 | 0.482 | 0.262 | 0.432 | 0.357
15 | NCI-H1703 | 0.873 | 0.671 | 0.633 | 0.512 | 0.797 | 1.3 | 0.555 | 0.417 | – | – | – | – | – | – | – | – | – | –
16 | NCI-H1793 | – | – | – | – | 0.894 | 0.778 | 0.891 | 1.07 | 0.295 | – | 0.292 | 0.38 | 0.303 | 0.481 | – | 0.77 | 0.537 | 0.359
17 | NCI-H2170 | 1.5 | 1.07 | 1.29 | 1.25 | – | – | – | – | 0.407 | 0.399 | 0.372 | 0.381 | 0.351 | 0.477 | 0.418 | 0.42 | 0.438 | 0.471
18 | NCI-H2228 | 0.448 | 0.532 | 0.414 | 0.421 | 0.629 | 0.738 | 0.7 | 0.626 | 0.789 | 0.56 | 0.643 | 0.77 | 0.701 | – | – | – | – | –
19 | NCI-H2342 | – | – | – | – | – | – | – | – | 0.556 | 0.533 | 0.481 | 0.551 | 0.549 | 0.667 | 0.649 | 0.655 | 0.815 | 0.713
20 | SW 900 | – | – | – | – | – | – | – | – | 0.564 | 0.521 | – | 0.543 | 0.473 | 0.387 | 0.43 | – | 0.42 | 0.404
